{"source": "patent US20070032480A1", "about": "“Treatment of ischemia-induced arrhythmias” (The Johns Hopkins University, priority 2005, published 2007)", "key": {"[1]": {"system": "freshly isolated adult guinea pig ventricular myocytes", "assay": "ΔΨm oscillations and action potentials in isolated cardiomyocytes (two-photon TMRM imaging with current-clamp)", "type": "cell-based"}, "[2]": {"system": "Langendorff-perfused guinea pig hearts", "assay": "Baseline electrophysiological properties (APD, CV) of perfused hearts by optical mapping", "conditions": "for baseline APD / baseline CV (conduction velocity): optimal concentration of each agent (4.6 μM FGIN-1-27, 0.2 μM CsA, 64 μM 4′Cl-DZP, 10 μM GLIBEN)", "description": "All procedures involving the handling of animals were approved by the Animal Care and Use Committee of the Johns Hopkins University and adhered with public health service guidelines. As described in detail elsewhere (28), adult guinea pigs (n=48) were anesthetized with pentobarbital sodium (30 mg/kg ip), and retrogradely perfused as Langendorff preparations with oxygenated (95% 02-5% CO2) Tyrode solution containing (in mmol/l) 130 NaCl, 1.2 MgSO4, 4.75 KCl, 5.0 dextrose, and 1.25 CaCl2 (pH 7.40) at 36±1° C. Hearts were stained with the voltage-sensitive dye, di-4-ANEPPS (15 μmol/l) for 10 min, and then positioned in a chamber such that the mapping field was centered over a 0.8 cm diameter region of left ventricular epicardium, midway between apex and base. Gentle pressure was applied to the posterior surface of the heart with a movable piston to stabilize the mapped surface against the imaging window of the chamber allowing us to avoid the use of electromechanical inhibitors, which interfere with repolarization, and the incidence of arrhythmias. […] Pacing with a silver pin needle placed on the epicardium was performed intermittently and briefly at various times during the experimental protocol in order to obtain a quantitative assessment of epicardial conduction velocity at each time point. Pacing was then turned off in order to determine the intrinsic response of hearts to the ischemia reperfusion protocol independent of exogenous stimulation.\n(§1) An optical mapping system was designed with the capability of simultaneously recording transmembrane action potentials (APs) from 464 sites. Emitted fluorescence was collected using a custom designed optical macroscope imaging system consisting of a high numerical aperture photographic lens, a dichroic mirror and an emission filter as previously described in detail (29). Emitted light exiting the detector lens was filtered (>610 nm) and focused onto the photodiode array. Photocurrent from each photodiode underwent current-to-voltage conversion, amplification, band-pass filtering, multiplexing, and digitization (1600 samples/s per channel) with 16-bit precision.\nFollowing extraction and staining with di-4-ANEPPS, hearts were stabilized for 30 min. […] Pharmacological agents were delivered to the heart in one of two ways: 1) continuously, during control perfusion and reperfusion, or 2) in a high dose bolus (5-10× the optimal equilibration concentration), injected into the coronaries during the ischemic phase, 5 min before the onset of reperfusion. […] Following baseline perfusion at 15-20 mL/min to maintain a perfusion pressure of 60-70 mmHg, flow was completely stopped for 30 min (Ischemia phase), and APs (3.8 s epochs) were recorded at 1-min intervals. Following the ischemia phase, perfusion was restored initially at the same flow rate and then was adjusted slightly to exactly match the perfusion pressure during the baseline perfusion phase (Reperfusion phase). The optimal equilibration concentration of each agent was determined by its effects on ischemia-induced AP shortening, recovery of the AP duration (APD), and/or prevention of arrhythmias upon reperfusion.\nIn order to investigate whether mitochondrial ROS-induced activation of IMAC underlies the electrical dysfunction of hearts subjected to IR, a protocol for reproducibly inducing ventricular fibrillation (VF) in Langendorff-perfused guinea pig hearts was established."}, "[3]": {"system": "Langendorff-perfused guinea pig hearts", "assay": "Electrophysiological response to 30 min no-flow global ischemia", "conditions": "for blunting of AP shortening and persistence of APs during ischemia at the highest concentration: 100 μM, 30 min no-flow ischemia; for ischemia-induced APD shortening: pre-treatment before no-flow ischemia; for ischemia-induced APD shortening / ischemia-induced reduction of normalized APA and upstroke velocity (dF/dt): versus control hearts; for ischemia-induced reduction of normalized APA and upstroke velocity (dF/dt): relative to pre-ischemia baseline; for time for the onset of inexcitability during ischemia: no-flow ischemia, control hearts ˜18 min", "description": "(§2) All procedures involving the handling of animals were approved by the Animal Care and Use Committee of the Johns Hopkins University and adhered with public health service guidelines. As described in detail elsewhere (28), adult guinea pigs (n=48) were anesthetized with pentobarbital sodium (30 mg/kg ip), and retrogradely perfused as Langendorff preparations with oxygenated (95% 02-5% CO2) Tyrode solution containing (in mmol/l) 130 NaCl, 1.2 MgSO4, 4.75 KCl, 5.0 dextrose, and 1.25 CaCl2 (pH 7.40) at 36±1° C. Hearts were stained with the voltage-sensitive dye, di-4-ANEPPS (15 μmol/l) for 10 min, and then positioned in a chamber such that the mapping field was centered over a 0.8 cm diameter region of left ventricular epicardium, midway between apex and base. Gentle pressure was applied to the posterior surface of the heart with a movable piston to stabilize the mapped surface against the imaging window of the chamber allowing us to avoid the use of electromechanical inhibitors, which interfere with repolarization, and the incidence of arrhythmias. Although experiments were typically completed within 1.5 to 2 h, these preparations remained stable for over 4 h of perfusion. Pacing with a silver pin needle placed on the epicardium was performed intermittently and briefly at various times during the experimental protocol in order to obtain a quantitative assessment of epicardial conduction velocity at each time point. Pacing was then turned off in order to determine the intrinsic response of hearts to the ischemia reperfusion protocol independent of exogenous stimulation.\nas §1\n(§3) Following extraction and staining with di-4-ANEPPS, hearts were stabilized for 30 min. Monitoring of APs, perfusion pressure, coronary flow, and temperature ensured electrical stability in all preparations (n=48) used in this study. Pharmacological agents were delivered to the heart in one of two ways: 1) continuously, during control perfusion and reperfusion, or 2) in a high dose bolus (5-10× the optimal equilibration concentration), injected into the coronaries during the ischemic phase, 5 min before the onset of reperfusion. […] Following baseline perfusion at 15-20 mL/min to maintain a perfusion pressure of 60-70 mmHg, flow was completely stopped for 30 min (Ischemia phase), and APs (3.8 s epochs) were recorded at 1-min intervals. Following the ischemia phase, perfusion was restored initially at the same flow rate and then was adjusted slightly to exactly match the perfusion pressure during the baseline perfusion phase (Reperfusion phase). The optimal equilibration concentration of each agent was determined by its effects on ischemia-induced AP shortening, recovery of the AP duration (APD), and/or prevention of arrhythmias upon reperfusion.\nNext, the ability of any of these pharmacological interventions to modulate the electrophysiological response of hearts to no-flow global ischemia was tested. […] Also, APD shortening in ischemia was accompanied by progressive reduction of the AP upstroke velocity, which occurred over a similar time frame (see, for example, FIG. 4).\nIschemic elevation of extracellular K^+ concentration, which may be mediated in part by KATP channel opening, might also be expected to partially depolarize the cellular resting membrane potential. […]"}, "[4]": {"system": "Langendorff-perfused guinea pig hearts", "assay": "Response to reperfusion after 30 min ischemia (arrhythmias, AP recovery)", "conditions": "for period of electrical inexcitability upon reperfusion: 0.2 μM CsA, 4′-Cl-DZP pretreated hearts; for post-ischemic (reperfusion) arrhythmias, effect in words: reperfusion after 30 min ischemia", "description": "as §2, §1, §3\nReperfusion of untreated control hearts was associated with sustained ventricular fibrillation (VF) in 89% of hearts (FIG. 5)."}}, "note": "“Also recorded” adds a separate entry of the source."}
{"smiles": "CN1C(=O)CN=C(c2ccc(Cl)cc2)c2cc(Cl)ccc21", "note": "[4′-Cl-DZP, 4′-chlorodiazepam]", "values": [{"measurement": "time from drug application to suppression of AP oscillations and stabilisation of APD90", "setting": "[1]; 64 μM", "value": "≤ 2", "unit": "min"}, {"measurement": "oscillations in APD", "setting": "[1]; current-clamp, laser-triggered oscillations, 64 μM", "value": "eliminated oscillations in APD; also recorded: APD oscillations are eliminated"}, {"measurement": "whole-cell oscillations in ΔΨm", "setting": "[1]; oscillations triggered by focal two-photon laser flash, TMRM fluorescence", "value": "suppressed whole-cell oscillations in ΔΨm; also recorded: interruption of mitochondrial oscillations with ΔΨm recovery"}, {"measurement": "time to return of ΔΨm oscillations after washout of the compound", "setting": "[1]; washout, FIG. 1A", "value": "≤ 10", "unit": "min"}, {"measurement": "effect on APD or CV during baseline perfusion", "setting": "[2]; 100 μM, baseline perfusion", "value": "no significant effect on APD or CV; also recorded: comparable"}, {"measurement": "baseline APD", "setting": "[2]; baseline perfusion", "value": "188 ± 16", "unit": "ms"}, {"measurement": "baseline CV (conduction velocity)", "setting": "[2]; baseline perfusion", "value": "39 ± 5", "unit": "cm/s"}, {"measurement": "blunting of AP shortening and persistence of APs during ischemia at the highest concentration", "setting": "[3]", "value": "APs persisted even after 30 min of no-flow ischemia"}, {"measurement": "blunting of AP shortening and persistence of APs during ischemia at the highest concentration", "setting": "[3]; listed as 4′Cl-DZP", "value": "most effective in blunting AP shortening during ischemia"}, {"measurement": "ischemia-induced APD shortening", "setting": "[3]", "value": "blunted APD shortening in a dose-dependent fashion; also recorded: blunted APD shortening during ischemia"}, {"measurement": "ischemia-induced reduction of normalized APA and upstroke velocity (dF/dt)", "setting": "[3]", "value": "protected against such decrease in both parameters"}, {"measurement": "period of electrical inexcitability upon reperfusion", "setting": "[4]", "value": "< 2", "unit": "min"}, {"measurement": "restoring the APD upon reperfusion and preventing arrhythmias", "setting": "[4]; 100 μM versus 64 μM", "value": "not as effective as the lower concentration of 64 μM in restoring the APD upon reperfusion and preventing arrhythmias"}, {"measurement": "prevention of reperfusion-related VF", "setting": "[4]; 320 μM high dose bolus 5 min prior to onset of reperfusion", "value": "4 of 4"}, {"measurement": "prevention of reperfusion-related VF", "setting": "[4]; 32-64 μM delivered continuously prior to ischemia", "value": "6 of 8"}, {"measurement": "hearts that exhibited no sustained arrhythmias upon reperfusion", "setting": "[4]; all 4′-Cl-DZP treated hearts (continuous and bolus)", "value": "10 of 12"}, {"measurement": "recovery of the AP upon reperfusion", "setting": "[4]; optimal concentrations (64 μM 4′-Cl-DZP, 0.2 μM CsA)", "value": "promoted the rapid recovery of the AP morphology and duration"}, {"measurement": "post-ischemic (reperfusion) arrhythmias, effect in words", "setting": "[4]", "value": "markedly decreased the incidence of post-ischemic arrhythmias; also recorded: more effective than continuous inhibition of KATP channels"}, {"measurement": "post-ischemic (reperfusion) arrhythmias, effect in words", "setting": "[4]; listed as 4′CL-DZP", "value": "prevented reperfusion-related ventricular fibrillation"}]}
{"smiles": "CCCCCCN(CCCCCC)C(=O)Cc1c(-c2ccc(F)cc2)[nH]c2ccccc12", "note": "[FGIN-1-27]", "values": [{"measurement": "effect on APD and excitability during normal perfusion", "setting": "[2]; 46 μM, normal perfusion", "value": "significant APD shortening and membrane inexcitability"}, {"measurement": "time from drug delivery to APD shortening and membrane inexcitability", "setting": "[2]; 46 μM, normal perfusion", "value": "≤ 15", "unit": "min"}, {"measurement": "baseline APD", "setting": "[2]; baseline perfusion", "value": "174 ± 16", "unit": "ms"}, {"measurement": "baseline CV (conduction velocity)", "setting": "[2]; baseline perfusion", "value": "44 ± 6", "unit": "cm/s"}, {"measurement": "time for the onset of inexcitability during ischemia", "setting": "[3]", "value": "12.7 ± 2.6", "unit": "min"}, {"measurement": "ischemia-induced APD shortening", "setting": "[3]", "value": "accelerated APD shortening during ischemia"}, {"measurement": "ischemia-induced reduction of normalized APA and upstroke velocity (dF/dt)", "setting": "[3]", "value": "accentuated the ischemia-induced reduction of APA and dF/dt; also recorded: more enhanced reduction of action potential amplitude"}, {"measurement": "slowing of CV during ischemia", "setting": "[3]; versus untreated hearts", "value": "disproportionate slowing of CV"}, {"measurement": "period of electrical inexcitability upon reperfusion", "setting": "[4]", "value": "prolonged period of electrical silence"}, {"measurement": "hearts with ventricular tachycardia (VT) upon reperfusion", "setting": "[4]; FGIN-1-27 treated hearts", "value": "6 of 6"}, {"measurement": "cycle length of VT upon reperfusion", "setting": "[4]; compared to control hearts", "value": "significantly longer cycle length"}, {"measurement": "post-ischemic (reperfusion) arrhythmias, effect in words", "setting": "[4]", "value": "long period of electrical silence followed by ventricular tachycardia (VT) of long duration"}]}
{"smiles": "COc1ccc(Cl)cc1C(=O)NCCc1ccc(S(=O)(=O)NC(=O)NC2CCCCC2)cc1", "note": "[GLIBEN]", "values": [{"measurement": "baseline APD", "setting": "[2]; baseline perfusion", "value": "182 ± 16", "unit": "ms"}, {"measurement": "baseline CV (conduction velocity)", "setting": "[2]; baseline perfusion", "value": "41 ± 5", "unit": "cm/s"}, {"measurement": "time for the onset of inexcitability during ischemia", "setting": "[3]", "value": "~18", "unit": "min"}, {"measurement": "ischemia-induced APD shortening", "setting": "[3]", "value": "marked reduction in the rate of APD shortening"}, {"measurement": "ischemia-induced reduction of normalized APA and upstroke velocity (dF/dt)", "setting": "[3]", "value": "protected against such decrease in both parameters"}, {"measurement": "hearts in which tachyarrhythmias were prevented", "setting": "[4]; bolus dose given just prior to reperfusion", "value": "2 of 3"}]}
